Assay results reported in patent US20170332910A1, “MODIFIED PARAMAGNETIC NANOPARTICLES FOR TARGETED DELIVERY OF THERAPEUTICS AND METHODS THEREOF” (ALBERT EINSTEIN COLLEGE OF MEDICINE, INC., priority 2014, published 2017).
One block for each compound: values may come before it.

Assays:
[1] = test system: U87 human glioblastoma cells; assay: Cell viability assay (Presto Blue); type: cell-based; conditions: 48 h incubation
Description: FIG. 22 Cytotoxicity of naked curcumin, curcumin conjugated PMNPs and Sol-Gel Nps and blanks (without curcumin) performed on U87 human glioblastoma cells after 48 hours of incubation. Note that 1 μM equivalent curcumin concentration corresponds to 16.7 μg/mL of nanoparticles. […] The data represents the mean±SE, n=3 to 18.
Cells were plated in 24-well trays and allowed to become confluent then incubated with naked curcumin or different curcumin NP concentrations for 48 h. Cell viability was quantified using Presto Blue (Invitrogen) an assay that contains a cell permeable resazurin-based solution that is modified by the reducing environment of the viable cell becoming highly fluorescent. Using a plate reader, cell viability was quantified after 0.5-1 hours of incubation with Presto Blue. All measurements were always accompanied by control wells and by calibration wells to account for background fluorescence using the same culture media and the same NP concentrations without the cells.
U-87 used as an vitro model of human glioblastoma were incubated with either Curcumin or Curcumin loaded NPs.

[2] = test system: human glioblastoma (GBM43); assay: Effect of LPS-PMNPs on delivery of irinotecan, intracranial glioblastoma; type: in vivo, mouse; conditions: LPS-PMNP plus magnetic field vs groups 1 and 2, 24 hours after dose on day 18
Description: In this study, human glioblastoma (GBM43) were maintained as subcutaneous xenografts. The tumor cells from subcutaneous xenografts were transfer to the intracranial compartment. Cells were suspended in DMEM media at 1×10^5 cells/μL for intracranial injection. 3 μL of tumor cell suspension (3×10^5 cells total) were injected into the right caudate putamen of 6 week-old female athymic mice (nu/nu). Prior to injection, the mice were anesthetized IP (intraperitoneal injection) (ketamine/xylazine). 0.4 mg of irinotecan was administrated via tail vein to each mouse on day 12 after implantation of tumor cells, and repeated at days 18, 24, and 30. LPS-PMNPs were administered via tail vein 4 hours prior to administration of irinotecan. All treatment groups received treatment with irinotecan. The treatment groups were: 1) control (without LPS-PMNP treatment); 2) LPS-PMNP (LPS-PMNP treatment without magnetic field); and 3) LPS-PMNP with magnetic field (strong localized magnetic field applied to tumor area). For group 3, the strong localized magnetic field was applied to the tumor cranial area using a conical magnet. […]
The irinotecan content in the brain and the tumor from a mouse in each group was also determined. […] Irinotecan levels in the tumor tissues were measured from homogenized tissues in acidic methanol solution, and measured using an HPLC (eluted peaks, 380/540 nm). […]

[3] = test system: human breast cancer xenographs; assay: MRI of magnetic field induced localization of gadolinium oxide based PMNPs; type: in vivo, mouse
Description: FIGS. 3(A-D). […] By applying a magnet field for 30 minutes at hind end (blue arrows), the enhanced image of hind-end tumor is observed (3B). The enhanced image of the tumor persists for at least several hours. […] The PMNPs are concentrated at site of a lower abdominal mammary tumor (FIG. 3C) using an external magnetic field placed over the tumor for 30 minutes. […] Imaging was performed over several hours without taking the mouse out of MRI machine thereby maintaining all of the imaging parameters.
FIGS. 4(A-B). Compares the MRI contrast data between […] (gadopentetate dimeglumine) and gadolinium oxide-based PMNPs.
In FIG. 3 are presented results on magnetic immobilization of gadolinium-based PMNPs in a mouse with numerous human breast cancer xenographs. There is no image enhancement for any of the multiple tumors located in different parts of the mouse including one at hind end (green-arrow at bottom of the picture marked tumor). The mouse was then removed and then subjected to thirty minutes of having a magnetic field placed over the tumor demarked by the green arrow. […] The intensity of MRI signal is very similar at both tumor and bladder. This is very different than observed in case of […] where there is a transient image of the bladder and no site specific localization of the contrast agent in any one of the tumors. […]

[4] = test system: human glioblastoma (GBM43); assay: LPS-PMNPs and oral temozolomide, survival and drug delivery; type: in vivo, mouse; conditions: oral 20 mg/kg after LPS-PMNP with magnetic field; relative to groups 1-3
Description: In this study, human glioblastoma (GBM43) were again maintained as subcutaneous xenografts. The tumor cells from subcutaneous xenografts were transfer to the intracranial compartment. Cells were suspended in DMEM media at 1×10^5 cells/μL for intracranial injection. 3 μL of tumor cell suspension (3×10^5 cells total) were injected into the right caudate putamen of 6 week-old female athymic mice (nu/nu). Prior to injection, the mice were anesthetized IP (intraperitoneal injection) (ketamine/xylazine). PMNPs (10 mg/kg) with and without LPS were administered via tail vein. 6 hours after administration of PMNPs, 20 mg/kg temozolomide (TMZ) was administrated as oral suspension in a vehicle containing 2.5 mg/ml Povidone K30, 0.015% citric acid, 50% Ora-Plus, 50% Ora-Sweet SF (Paddock Labs Minneapolis, Minn.) on days 12, 18, 24, and 30. The treatment groups were: 1) control (no TMZ); 2) TMZ alone; 3) LPS-PMNP plus TMZ (without magnetic field); and 4) LPS-PMNP plus TMZ with magnetic field (strong localized magnetic field applied to tumor area). The mice were euthanized as the symptoms from the increasing tumor burden prevented access to food/water.

[5] = test system: TNFα, TGBβ, MCP-1, IL-1α, IL-1β, IL-6, IL-10, and IL-12; assay: Time-dependent cytokine levels (systemic inflammation); type: in vivo, mice
Description: This study monitored the time-dependent changes in various cytokine levels (TNFα, TGBβ, MCP-1, IL-1α, IL-1β, IL-6, IL-10, and IL-12) for LPS-PMNPs (10 mg/kg) in mice with and without magnetic field (i.e., treatment with or without a localized magnet) as compared with free LPS introduced at 10 mg/kg and 2 mg/kg—a lower concentration than for the LPS carried on the PMNPs. The cytokine levels for each group were measured over a 24-hour period, with measurements at baseline, 1 hour, 6 hours, and 24 hours. The four comparison groups were: A) LPS-PMNP (10 mg/kg) without magnetic field; B) LPS-PMNP (10 mg/kg) with magnetic field; C) free LPS (2 mg/kg); and D) free LPS (10 mg/kg).

[6] = test system: xenografted human breast cancer; assay: ADM-PMNP plus magnetic field on xenografted human breast cancer (bioluminescence); type: in vivo, mouse; conditions: comparable amount of free drug
Description: FIG. 8 Anti-tumor effect of IV infused Adriamycin loaded PMNP (ADM-PMNP) plus magnetic field treatment on xenografted human breast cancer. Human breast cancer was s.c. xenografted in a female nude mouse. The mouse was injected with 1 mg/kg ADM-PMNP and the tumor was treated with magnetic field for 30 minutes following each injection The mouse was imaged before and after the treatment, the luminescent signals were quantitatively analyzed for change of tumor size. At the end of the treatment, there was a >80% decrease of luminescent signaling in the tumor. The signal recovered partially 3 days after the treatment was ended.
Signal intensity in treated tumor was similar to that in bladder, a major route of PMNP elimination. Next, to assess drug delivery and anti-tumor efficacy, MoB-1833 mammary xenografted tumor-bearing mice were infused with ADM-coated PMNP (ADM-PMNP). ADM use in chemotherapy is limited due to systemic toxicity and it is therefore an excellent model drug for evaluation of the potentially utility of our PMNP platform. […] This ADM dose is 5-20 times lower than doses of free ADM commonly used for in animal studies and similar to doses used clinically. The 4-day treatment achieved a 9-fold reduction in tumor mass (FIG. 8). Tumor rebound upon drug termination confirmed specificity of the drug effect. […] The necrosis was confirmed histologically (FIG. 9Bd-f). […]

MDA-MB-436 = assay: Tumor necrosis in MDA-MB-436 xenografts; type: in vivo, mouse; conditions: 1.0 mg/kg
[7] = Histopathological analysis of multiple tissues (toxicity); type: in vivo, mouse; conditions: 1 mg/kg
Description: FIGS. 11(A-B). Systemic effect of the treatment. (A) Representative H&E staining of tissue sections from ADM-PMNP injected mice (1 mg/kg BW)(A). (B) inflammation and hyperplasia were found in colon from mice treated with free ADM (B-left) but not in mice injected with the same dose of ADM-PMNP (B-right).

Compound: COc1cc(/C=C/C(=O)CC(=O)/C=C/c2ccc(O)c(OC)c2)ccc1O [curcumin, Curcumin]
equivalent curcumin concentration able to significantly decrease cell viability by 20% [1]: 5 µM

irinotecan content in the brain [2]: higher
irinotecan content in the tumor ([2]; HPLC): significantly higher
Compound: CCc1c2c(nc3ccc(OC(=O)N4CCC(N5CCCCC5)CC4)cc13)-c1cc3c(c(=O)n1C2)COC(=O)[C@]3(O)CC [irinotecan]

persistence of MRI contrast ([3]; mouse, in vivo): short lived
distribution of contrast agent (MRI) ([3]; within a short time, no magnetic field): concentrates in the bladder
Compound: CNC[C@H](O)[C@@H](O)[C@H](O)[C@H](O)CO.CNC[C@H](O)[C@@H](O)[C@H](O)[C@H](O)CO.O=C([O-])CN(CCN(CC(=O)[O-])CC(=O)O)CCN(CC(=O)[O-])CC(=O)O.[Gd+3] [gadopentetate dimeglumine]

Compound: Cn1nnc2c(C(N)=O)ncn2c1=O [TMZ, temozolomide]
TMZ content in the tumor [4]: greater TMZ content in the tumor

Compound: lipopolysaccharides [free LPS]
acute inflammation ([5]; 2 mg/kg, compared with LPS-PMNP (10 mg/kg)): substantially greater
inflammation over time ([5]; 10 mg/kg): produced endotoxemia

Compound: COc1cccc2c1C(=O)c1c(O)c3c(c(O)c1C2=O)C[C@@](O)(C(=O)CO)C[C@@H]3O[C@H]1C[C@H](N)[C@H](O)[C@H](C)O1 [Adriamycin, Adriamycin (doxorubicin)]
anti-tumor effect [6]: relatively ineffective
tumor necrosis (MDA-MB-436): smaller necrotic lesions
histopathological findings [7]: colonic inflammation and hyperplasia
